Reference: article PMC10298530, “Synthesis and Anticancer Activity of A-Ring-Modified Derivatives of Dihydrobetulin” (International Journal of Molecular Sciences, 2023)

Columns and labels:
[1] = system: HCT116; assay: MTT cell viability assay, HCT116; format: cell-based, human; conditions: Homo sapiens, HCT-116; Table S1, HCT116; read-out: IC50 (mean ± SD)
From the text: (§1) Blokhin National Medical Research Center of Oncology (the Ministry of Health of the Russian Federation, Moscow).

[2] = system: HEK293; assay: MTT cell viability assay, HEK293; format: cell-based; conditions: Homo sapiens; Table S1, HEK293; read-out: IC50 (mean ± SD)
From the text: as §1

[3] = system: HEpG2; assay: MTT cell viability assay, HEpG2; format: cell-based, human; conditions: Homo sapiens; Table S1, HEpG2; read-out: IC50 (mean ± SD)
From the text: as §1

[4] = system: HBL-100; assay: MTT cell viability assay, HBL-100; format: cell-based, human; conditions: Homo sapiens; Table S1, HBL-100; read-out: IC50 (mean ± SD)
Protocol: (§2) The cells were cultured in a humidified CO2 incubator (model 460-CE; Thermo Fisher Scientific, Waltham, MA, USA) at +37 °C and 5% CO2.
(§3) The percentage of the viable cells was calculated according to the following equation: cell viability (%) = 100 × (mean absorbance in the treatment group/mean absorbance in the control group). The results were expressed pictorially using Prism 6.0 (GraphPad Software, Boston, MA, USA).

[5] = system: PC-3; assay: MTT cell viability assay, PC-3; format: cell-based, human; conditions: Homo sapiens; Table S1, PC-3; read-out: IC50 (mean ± SD)
From the text: as §1

[6] = system: A549; assay: MTT cell viability assay, A549; format: cell-based, human; conditions: Homo sapiens; Table S1, A549; read-out: IC50 (mean ± SD)
From the text: as §1

[7] = system: MCF-7; assay: MTT cell viability assay, MCF-7; format: cell-based, human; conditions: Homo sapiens, MCF7; Table S1, MCF-7; read-out: IC50 (mean ± SD)
From the text: as §1

[8] = system: HBL-100/Dox; assay: MTT cell viability assay, HBL-100/Dox; format: cell-based, human; conditions: Homo sapiens, HBL-100; read-out: IC50 (mean ± SD)
Protocol: as §2, §3

[9] = system: MS; assay: MTT cell viability assay, MS; format: cell-based, human; conditions: Homo sapiens; Table S1, MS; read-out: IC50 (mean ± SD);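 note: MS is a melanocyte cell line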
From the text: as §1

[10] = system: RD TE32; assay: MTT cell viability assay, RD TE32; format: cell-based, human; conditions: Homo sapiens; Table S1, RD TE32; read-out: IC50 (mean ± SD)
From the text: as §1

C=C(C=O)C1CC[C@]2(C)C(CCC3C4C(C(C)C)CC[C@]4(COC(=O)c4ccccc4)CC[C@]32C)[C@@]1(C)CCC#N (stereo partly shown) [compound 4, 28-Benzoyloxy-2-cyano-3,4-seco-3-norlup-4(23)-en-24-al]
176.5 °C: melting point
> 200 µM: IC50 [1] | IC50 [7]
> 100 µM: IC50 [2] | IC50 [3] | IC50 [4] | IC50 [5] | IC50 [6] | IC50 [8] | IC50 [9] | IC50 [10]

C=C(C=O)C1CC[C@]2(C)C(CCC3C4C(C(C)C)CC[C@]4(C(=O)OC)CC[C@]32C)[C@@]1(C)CCC#N (stereo partly shown) [compound 5, 2-Cyano-3,4-seco-3-norlup-4(23)-en-24-al-28-oic acid methyl ester]
> 100 µM: IC50 [3] | IC50 [5] | IC50 [6] | IC50 [8] | IC50 [9] | IC50 [10]
97.3 °C: melting point
> 200 µM: IC50 [1] | IC50 [2] | IC50 [4] | IC50 [7]

C=C(CBr)C1CC[C@]2(C)C(CCC3C4C(C(C)C)CC[C@]4(COC(=O)c4ccccc4)CC[C@]32C)[C@@]1(C)CCC#N (stereo partly shown) [compound 6, 28-Benzoyloxy-24-bromo-2-cyano-3,4-seco-3-norlup-4(23)-ene]
87.9 °C: melting point
> 200 µM: IC50 [1] | IC50 [2] | IC50 [7] | IC50 [8] | IC50 [10]
> 100 µM: IC50 [3] | IC50 [4] | IC50 [5] | IC50 [6] | IC50 [9]

C=C(CBr)C1CC[C@]2(C)C(CCC3C4C(C(C)C)CC[C@]4(C(=O)OC)CC[C@]32C)[C@@]1(C)CCC#N (stereo partly shown) [compound 7, 24-Bromo-2-cyano-3,4-seco-3-norlup-4(23)-en-28-oic acid methyl ester]
72.7 °C: melting point
> 100 µM: IC50 [2] | IC50 [3] | IC50 [5] | IC50 [6] | IC50 [7] | IC50 [9]
> 200 µM: IC50 [1] | IC50 [4] | IC50 [8] | IC50 [10]

C=C1C=C(C#N)C[C@@]2(C)C1CC[C@]1(C)C2CCC2C3C(C(C)C)CC[C@]3(CO)CC[C@]21C (stereo partly shown) [compound 8, 2-Cyano-28-hydroxy-3,4-seco-3-nor-2,24-cyclolup-2(24),4(23)-diene]
196.1 °C: melting point
> 100 µM: IC50 [2] | IC50 [3] | IC50 [4] | IC50 [5] | IC50 [6] | IC50 [7] | IC50 [9]
> 200 µM: IC50 [1] | IC50 [8] | IC50 [10]

C=C1C2CC[C@]3(C)C(CCC4C5C(C(C)C)CC[C@]5(CO)CC[C@]43C)[C@@]2(C)C[C@@H](C#N)[C@@H]1O (stereo partly drawn) [compound 9, 2-Cyano-24β,28-dihydroxy-3,4-seco-3-nor-2,24-cyclolup-4(23)-ene]
170.1 °C: melting point
> 200 µM: IC50 [4] | IC50 [7]
> 100 µM: IC50 [1] | IC50 [2] | IC50 [3] | IC50 [5] | IC50 [6] | IC50 [8] | IC50 [9] | IC50 [10]

C=C1C=C(C#N)C[C@@]2(C)C1CC[C@]1(C)C2CCC2C3C(C(C)C)CC[C@]3(C(=O)OC)CC[C@]21C (stereo partly shown) [compound 10, 2-Cyano-3,4-seco-3-nor-2,24-cyclolup-2(24),4(23)-dien-28-oic acid methyl ester]
> 100 µM: IC50 [3] | IC50 [4] | IC50 [5] | IC50 [6] | IC50 [7] | IC50 [9] | IC50 [10]
> 200 µM: IC50 [1] | IC50 [2] | IC50 [8]
76.6 °C: melting point

C=C1C2CC[C@]3(C)C(CCC4C5C(C(C)C)CC[C@]5(C(=O)OC)CC[C@]43C)[C@@]2(C)C[C@@H](C#N)[C@@H]1O (stereo partly drawn) [compound 11, 2-Cyano-24β-hydroxy-3,4-seco-3-nor-2,24-cyclolup-4(23)-en-28-oic acid methyl ester]
133.9 °C: melting point
73.3 ± 1.51 µM: IC50 [4]
> 200 µM: IC50 [1] | IC50 [2] | IC50 [8] | IC50 [10]
> 100 µM: IC50 [3] | IC50 [5] | IC50 [6] | IC50 [7] | IC50 [9]
